Laboratory results published in the NIST ThermoML archive (doi:10.1016/j.jct.2015.02.020).
Numbers after ± are expanded uncertainties.

What was measured:
[1] = xn = mol fraction of the nth substance listed; settings: 101.3 kPa, Liquid; for viscosity: Falling or rolling sphere viscometry; for speed of sound: Sing-around technique in a fixed-path interferometer; for mass density: Vibrating tube method
[2] = refractive index (Na D-line) (dimensionless); xn = mol fraction of the nth substance listed; settings: 101.3 kPa, Liquid, Standard Abbe refractometry

CC[n+]1ccc(C)cc1.O=S(=O)([N-]S(=O)(=O)C(F)(F)F)C(F)(F)F + O
Settings | mass density, [1] [kg/m3] | refractive index, [2] | speed of sound, [1] [m/s] | viscosity, [1] [mPa·s]
298.15 K, x2 = 0.144 | 1479.48 ± 0.82 | 1.44235 ± 0.00039 | 1266.8 ± 1.5 | 24.89 ± 0.71
298.15 K, x2 = 0.201 | 1476.6 ± 0.88 | 1.44165 ± 0.00039 | 1268.3 ± 1.5 | 22.72 ± 0.64
298.15 K, x2 = 0.306 | 1469.91 ± 0.89 | 1.44005 ± 0.00039 | 1271.7 ± 1.4 | 19.35 ± 0.57
303.15 K, x2 = 0.144 | 1474.53 ± 0.82 | 1.44089 ± 0.00039 | 1255.4 ± 1.5 | 21.05 ± 0.63
303.15 K, x2 = 0.201 | 1471.63 ± 0.89 | 1.44016 ± 0.00039 | 1256.8 ± 1.5 | 19.29 ± 0.55
303.15 K, x2 = 0.306 | 1464.89 ± 0.92 | 1.43866 ± 0.00039 | 1260.3 ± 1.4 | 16.23 ± 0.47
308.15 K, x2 = 0.144 | 1469.61 ± 0.83 | 1.4394 ± 0.00038 | 1244.1 ± 1.5 | 18.04 ± 0.53
308.15 K, x2 = 0.201 | 1466.68 ± 0.96 | 1.43875 ± 0.00039 | 1245.5 ± 1.5 | 16.53 ± 0.47
308.15 K, x2 = 0.306 | 1459 ± 0.93 | 1.43719 ± 0.00039 | 1249.2 ± 1.4 | 13.95 ± 0.41
313.15 K, x2 = 0.144 | 1464.69 ± 0.83 | 1.43785 ± 0.00039 | 1232.9 ± 1.5 | 15.53 ± 0.45
313.15 K, x2 = 0.201 | 1461.75 ± 0.89 | 1.43727 ± 0.0004 | 1234.3 ± 1.5 | 14.31 ± 0.4
313.15 K, x2 = 0.306 | 1454.92 ± 0.93 | 1.4355 ± 0.00039 | 1238 ± 1.4 | 12.19 ± 0.35
318.15 K, x2 = 0.144 | 1459.79 ± 0.83 | 1.43674 ± 0.00039 | 1221.8 ± 1.5 | 13.59 ± 0.38
318.15 K, x2 = 0.201 | 1456.83 ± 0.9 | 1.4359 ± 0.00039 | 1223.2 ± 1.5 | 12.58 ± 0.35
318.15 K, x2 = 0.306 | 1449.95 ± 0.9 | 1.4346 ± 0.00038 | 1226.8 ± 1.4 | 10.74 ± 0.31
323.15 K, x2 = 0.144 | 1454.91 ± 0.83 | 1.43532 ± 0.00041 | 1210.9 ± 1.5 | 12.03 ± 0.33
323.15 K, x2 = 0.201 | 1451.92 ± 0.9 | 1.43441 ± 0.00037 | 1212.2 ± 1.5 | 11.15 ± 0.31
323.15 K, x2 = 0.306 | 1444.99 ± 0.91 | 1.43373 ± 0.00036 | 1215.7 ± 1.4 | 9.52 ± 0.27
328.15 K, x2 = 0.144 | 1450.05 ± 0.83 | 1.43396 ± 0.00041 | 1200.1 ± 1.5 | 10.7 ± 0.29
328.15 K, x2 = 0.201 | 1447.04 ± 0.9 | 1.43298 ± 0.00037 | 1201.3 ± 1.5 | 9.939 ± 0.27
328.15 K, x2 = 0.306 | 1440.05 ± 0.91 | 1.4324 ± 0.00035 | 1204.7 ± 1.4 | 8.473 ± 0.24
333.15 K, x2 = 0.144 | 1445.21 ± 0.83 | 1.43253 ± 0.00041 | 1189.4 ± 1.5 | 9.576 ± 0.26
333.15 K, x2 = 0.201 | 1442.18 ± 0.91 | 1.43159 ± 0.00037 | 1190.6 ± 1.5 | 8.902 ± 0.24
333.15 K, x2 = 0.306 | 1435.13 ± 0.91 | 1.43102 ± 0.00035 | 1193.9 ± 1.4 | 7.583 ± 0.22
338.15 K, x2 = 0.144 | 1440.39 ± 0.83 | 1.43108 ± 0.00041 | 1178.7 ± 1.5 | 8.598 ± 0.23
338.15 K, x2 = 0.201 | 1437.33 ± 0.91 | 1.43016 ± 0.00037 | 1179.9 ± 1.5 | 7.999 ± 0.22
338.15 K, x2 = 0.306 | 1430.22 ± 0.92 | 1.42965 ± 0.00035 | 1183 ± 1.4 | 6.83 ± 0.2
343.15 K, x2 = 0.144 | 1435.58 ± 0.83 | 1.42964 ± 0.0004 | 1168.2 ± 1.5 | 7.76 ± 0.2
343.15 K, x2 = 0.201 | 1432.49 ± 0.91 | 1.42874 ± 0.00037 | 1169.3 ± 1.5 | 7.221 ± 0.19
343.15 K, x2 = 0.306 | 1425.33 ± 0.92 | 1.42828 ± 0.00035 | 1172.2 ± 1.4 | –

CC[n+]1ccccc1.O=S(=O)([N-]S(=O)(=O)C(F)(F)F)C(F)(F)F [1-ethylpyridinium bis[(trifluoromethyl)sulfonyl]imide] + O
Settings | mass density, [1] [kg/m3] | refractive index, [2] | speed of sound, [1] [m/s] | viscosity, [1] [mPa·s]
298.15 K, x2 = 0.16 | 1526.97 ± 1.1 | 1.43876 ± 0.00038 | 1270.7 ± 1.5 | 29.14 ± 0.96
298.15 K, x2 = 0.213 | 1523.14 ± 1.1 | 1.43815 ± 0.00038 | 1272.3 ± 1.5 | 25.97 ± 0.77
298.15 K, x2 = 0.311 | 1515.34 ± 1.1 | 1.43705 ± 0.00037 | 1276 ± 1.5 | 22.45 ± 0.65
303.15 K, x2 = 0.16 | 1521.95 ± 1.1 | 1.4374 ± 0.00037 | 1259.7 ± 1.5 | 24.71 ± 0.86
303.15 K, x2 = 0.213 | 1518.1 ± 1.1 | 1.43684 ± 0.00038 | 1261.3 ± 1.5 | 22.07 ± 0.67
303.15 K, x2 = 0.311 | 1510.26 ± 1.1 | 1.43552 ± 0.00037 | 1265 ± 1.5 | 18.74 ± 0.55
308.15 K, x2 = 0.16 | 1516.97 ± 1.1 | 1.43587 ± 0.00037 | 1248.8 ± 1.5 | 21.3 ± 0.74
308.15 K, x2 = 0.213 | 1513.09 ± 1.1 | 1.43539 ± 0.00037 | 1250.4 ± 1.5 | 18.95 ± 0.58
308.15 K, x2 = 0.311 | 1505.19 ± 1.1 | 1.43461 ± 0.00036 | 1254 ± 1.5 | 16.02 ± 0.48
313.15 K, x2 = 0.16 | 1512 ± 1.1 | 1.4344 ± 0.00036 | 1238 ± 1.5 | 18.53 ± 0.65
313.15 K, x2 = 0.213 | 1508.09 ± 1.1 | 1.43415 ± 0.00037 | 1239.6 ± 1.5 | 16.4 ± 0.51
313.15 K, x2 = 0.311 | 1500.14 ± 1.1 | 1.43318 ± 0.00036 | 1243.2 ± 1.4 | 13.8 ± 0.42
318.15 K, x2 = 0.16 | 1507.04 ± 1.1 | 1.43296 ± 0.00036 | 1227.4 ± 1.5 | 16.21 ± 0.57
318.15 K, x2 = 0.213 | 1503.11 ± 1.1 | 1.43277 ± 0.00036 | 1228.9 ± 1.5 | 14.34 ± 0.45
318.15 K, x2 = 0.311 | 1495.11 ± 1.1 | 1.43193 ± 0.00036 | 1232.4 ± 1.4 | 12.1 ± 0.37
323.15 K, x2 = 0.16 | 1502.11 ± 1.1 | 1.43144 ± 0.00036 | 1216.9 ± 1.5 | 14.16 ± 0.47
323.15 K, x2 = 0.213 | 1498.16 ± 1.1 | 1.43144 ± 0.00036 | 1218.3 ± 1.5 | 12.71 ± 0.39
323.15 K, x2 = 0.311 | 1490.1 ± 1.1 | 1.43082 ± 0.00035 | 1221.8 ± 1.4 | 10.71 ± 0.33
328.15 K, x2 = 0.16 | 1497.2 ± 1.1 | 1.43003 ± 0.00036 | 1206.4 ± 1.5 | 12.5 ± 0.39
328.15 K, x2 = 0.213 | 1493.22 ± 1.1 | 1.42994 ± 0.00035 | 1207.8 ± 1.5 | 11.35 ± 0.34
328.15 K, x2 = 0.311 | 1485.1 ± 1.1 | 1.42955 ± 0.00035 | 1211.2 ± 1.4 | 9.547 ± 0.3
333.15 K, x2 = 0.16 | 1492.3 ± 1.1 | 1.42859 ± 0.00036 | 1196.1 ± 1.5 | 11.14 ± 0.34
333.15 K, x2 = 0.213 | 1488.3 ± 1.1 | 1.42857 ± 0.00035 | 1197.4 ± 1.5 | 10.18 ± 0.3
333.15 K, x2 = 0.311 | 1480.12 ± 1.1 | 1.42824 ± 0.00035 | 1200.7 ± 1.4 | 8.555 ± 0.27
338.15 K, x2 = 0.16 | 1487.43 ± 1.1 | 1.42719 ± 0.00036 | 1185.9 ± 1.5 | 9.991 ± 0.3
338.15 K, x2 = 0.213 | 1483.4 ± 1.1 | 1.42725 ± 0.00035 | 1187.1 ± 1.5 | 9.164 ± 0.27
338.15 K, x2 = 0.311 | 1475.16 ± 1.1 | 1.42694 ± 0.00035 | 1190.3 ± 1.4 | 7.709 ± 0.24
343.15 K, x2 = 0.16 | 1482.56 ± 1.1 | 1.42569 ± 0.00036 | 1175.7 ± 1.5 | 9.019 ± 0.26
343.15 K, x2 = 0.213 | 1478.5 ± 1.1 | 1.42589 ± 0.00035 | 1176.9 ± 1.5 | 8.282 ± 0.24
343.15 K, x2 = 0.311 | 1470.22 ± 1.1 | 1.42551 ± 0.00035 | 1180 ± 1.4 | 6.971 ± 0.22
